Results as given in patent US11738031B2, “Compositions and methods for preventing or treating muscle conditions” (The Board of Trustees of the Leland Stanford Junior …, priority 2017, dated 2023).
Entries after “also recorded” stand apart in the source; their conditions may differ. Like-named read-outs stand apart in the source and are kept apart here.

Legend:
[1] = cited from earlier work; for half-life: in vivo
TA muscles = experiment: In vivo muscle force after downhill treadmill exercise, aged mice, TA; parameters: species or system mouse; conditions: aged (18-22 mo) mice, 10 μg PGE2 after each run in week 1, force at week 5
Protocol: FIGS. 5Q and 5R show twitch force and tetanic force data, respectively, from a separate experiment in which mice were treated with PGE2 or vehicle only. Importantly, we observed an increase in isometric force in aged (18-22 mo) mice injected with PGE2 and subjected to downhill treadmill exercise. Briefly, aged mice ran daily (at 20 degrees downhill and 14 meter/min maximum speed for 10 min) for 5 days and rested on days 6 and 7. This eccentric exercise regime leads to MuSC expansion due to a cycle of muscle degeneration and regeneration. […] During week 2, mice were subjected to 5 days treadmill run only.

[2] = tested on: prostaglandin receptors (Ptger1-4); experiment: Quantitative RT-PCR of prostaglandin receptors in MuSCs; type: cell-based, mouse; conditions: 24 hr PGE2 treatment of MuSCs
Protocol: Quantitative RT-PCR: We isolated RNA from MuSCs using the RNeasy Micro Kit (Qiagen). […] We reverse-transcribed cDNA from total mRNA from each sample using the SensiFAST™ cDNA Synthesis Kit (Bioline). We subjected cDNA to RT-PCR using SYBR Green PCR Master Mix (Applied Biosystems) or TaqMan Assays (Applied Biosystems) in an ABI 7900HT Real-Time PCR System (Applied Biosystems). We cycled samples at 95° C. for 10 min and then 40 cycles at 95° C. for 15 s and 60° C. for 1 min. […] For SYBR Green qRT-PCR, we used the following primer sequences: Gapdh, forward 5′-[sequence]-3′ (SEQ ID NO: 1), reverse 5′-[sequence]-3′ (SEQ ID NO: 2); Hpgd, forward 5′-[sequence]-3′ (SEQ ID NO: 3), reverse 5′-[sequence]-3′ (SEQ ID NO: 4); Ptges, forward 5′-[sequence]-3′ (SEQ ID NO: 5), reverse 5′-[sequence]-3′ (SEQ ID NO: 6); Ptges2, forward 5′-[sequence]-3′ (SEQ ID NO: 7), reverse 5′-[sequence]-3′ (SEQ ID NO: 8); Ptger1, forward 5′ [sequence]-3′ (SEQ ID NO: 9), reverse, 5′ [sequence]-3′ (SEQ ID NO: 10), and Ptger2, forward 5′-[sequence]-3′ (SEQ ID NO: 11), reverse 5′-[sequence]-3′ (SEQ ID NO: 12). TaqMan Assays (Applied Biosystems) were used to quantify Pax7, Myogenin, Slco2a1 (PGT), Ptger3 and Ptger4 in samples according to the manufacturer instructions with the TaqMan Universal PCR Master Mix reagent kit (Applied Biosystems). Transcript levels were expressed relative to Gapdh levels. […]

[3] = tested on: muscle stem cells (MuSCs); experiment: MuSC proliferation in culture, cell number count (hemocytometer); type: cell-based, mouse
Protocol: Muscle stem cell culture, treatment and lentiviral infection: Following isolation, we resuspended MuSCs in myogenic cell culture medium containing DMEM/F10 (50:50), 15% FBS, 2.5 ng ml^−1 fibroblast growth factor-2 (FGF-2 also known as bFGF) and 1% penicillin-streptomycin. We seeded MuSC suspensions at a density of 500 cells per cm^2 surface area. We maintained cell cultures at 37° C. in 5% CO2 and changed medium daily. For PGE2, 15-PGDH inhibitor and EP4 receptor antagonist treatment studies, we added 1-200 ng/ml Prostaglandin E2 (Cayman Chemical) (unless specified in the figure legends, 10 ng/ml was the standard concentration used), and/or 1 μM EP4 antagonist (ONO-AE3-208, Cayman Chemical), or 1 μM 15-PGDH inhibitor (SW033291, Cayman Chemical) to the MuSCs cultured on collagen coated dishes for the first 24 h. The cells were then trypsinized and cells reseeded onto hydrogels for an additional 6 days of culture. All treatments were compared to their solvent (DMSO) vehicle control. For stripped serum assays, we resuspended isolated MuSCs in medium containing DMEM/F10 (50:50), 15% charcoal stripped FBS (Gibco, cat #12676011), 2.5 ng ml^−1 bFGF and 1% penicillin-streptomycin. […]
Proliferation assays: To assay proliferation, we used three different assays (hemocytometer, VisionBlue, and EdU). […] For hemocytometer cell number count, we collected cells at indicated timepoints by incubation with 0.5% trypsin in PBS for 5 min at 37° C. and quantified them using a hemocytometer at least 3 times. Additionally, we used the VisionBlue Quick Cell Viability Fluorometric Assay Kit (BioVision, catalog #K303) as a readout for cell growth in culture. Briefly, we incubated MuSCs with 10% VisionBlue in culture medium for 3 h, and measured fluorescence intensity on a fluorescence plate reader (Infinite M1000 PRO, Tecan) at Ex=530-570 nm, Em=590-620 nm. […] We quantified EdU positive cells using the MetaMorph Image Analysis software (Molecular Devices). Data analyses were blinded, where researchers performing cell scoring were unaware of the treatment condition given to sample groups analyzed. […]

**Q.** With CCCCC[C@H](O)/C=C/[C@H]1[C@H](O)CC(=O)[C@@H]1C/C=C\CCCC(=O)O [PGE2, prostaglandin E2] as the molecule, how does the half-life in vivo [1] read?
**A.** Its half-life in vivo is “relatively short”.

**Q.** What about the half-life [1] of the same molecule?
**A.** Its half-life is 5 min.

**Q.** What about the half-life ([1]; listed as Dinoprostone) of the same molecule?
**A.** The half-life was “less than 5 minutes”.

**Q.** What about the “force (twitch and tetanic) of TA muscles” value (TA muscles) of the same molecule?
**A.** The value was “significant increase in force”.

**Q.** And the “transcript levels of prostaglandin receptors (Ptger1-4) after PGE2 treatment” value [2]?
**A.** The value was “only receptors upregulated after PGE2 treatment of MuSCs are Ptger1 and Ptger4; also recorded: the most highly expressed receptor in MuSCs is Ptger4”.

**Q.** What about the “MuSC proliferation in medium with charcoal stripped serum” value ([3]; PGE2 10 ng/ml added to stripped serum medium, 7 days on hydrogels) of the same molecule?
**A.** The value was “divided upon addition of PGE2; also recorded: rescued this block in proliferation”.

**Q.** What about the “increase in the number of MuSCs relative to controls” value ([3]; PGE2 10 ng/ml, acute 1-day exposure, counted one week later, young MuSCs on hydrogel) of the same molecule?
**A.** Its value is 6 fold.
